Read-outs that look alike come from different tables or passages of the source.
How the values were obtained:
Format in all cases: cell-based
[1] = system: K. pneumoniae; test: Broth dilution MIC determination (CLSI) against K. pneumoniae strains; conditions: for MIC: Klebsiella pneumoniae
Method in brief: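 Azithromycin and solithromycin served as controls; MICs were obtained by standard CLSI broth dilution on a strain panel including multidrug-resistant and macrolide-resistant isolates.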

[2] = system: E. faecalis; test: Broth dilution MIC determination (CLSI) against E. faecalis strains; conditions: for MIC: Enterococcus faecalis
Method in brief: (§1)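 MICs were determined by CLSI standard broth dilution against multiple strains, including multidrug-resistant isolates, with emphasis on macrolide resistance mechanisms. Azithromycin and solithromycin served as control compounds.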

[3] = system: S. pneumoniae; test: Broth dilution MIC determination (CLSI) against S. pneumoniae strains; conditions: for MIC: Streptococcus pneumoniae
Method in brief: as §1

[4] = system: A. baumannii; test: Broth dilution MIC determination (CLSI) against A. baumannii strains; conditions: for MIC: Acinetobacter baumannii
Method in brief: as §1

[5] = system: H. influenzae; test: Broth dilution MIC determination (CLSI) against H. influenzae strains; conditions: Haemophilus influenzae
Source text: Minimum inhibitory concentrations (MICs) for macrolides described herein have been determined for unique strains of S. aureus, S. pneumoniae, S. pyogenes, E. faecalis, E. coli, A. baumannii, K. pneumoniae, P. aeruginosa, and H. influenzae, including several multidrug-resistant strains, with a special focus on macrolide resistant mechanisms. Azithromycin and solithromycin were included as control compounds. CLSI standard procedures for broth dilution MIC determination were used. Data for exemplary compounds described herein is shown in Tables M1-M7 and in Tables N1-N4.

[6] = system: S. aureus; test: Broth dilution MIC determination (CLSI) against S. aureus strains; conditions: for MIC: Staphylococcus aureus
Method in brief: as §1

[7] = system: S. pyogenes; test: Broth dilution MIC determination (CLSI) against S. pyogenes strains; conditions: for MIC: Streptococcus pyogenes
Method in brief: as §1

[8] = system: P. aeruginosa; test: Broth dilution MIC determination (CLSI) against P. aeruginosa strains; conditions: for MIC: Pseudomonas aeruginosa
Method in brief: as §1

[9] = system: E. coli; test: Broth dilution MIC determination (CLSI) against E. coli strains; conditions: for MIC: Escherichia coli
Method in brief: as §1

[10] = ATCC10031, ATCC10031, read-out: MIC K. pneumoniae ATCC10031
[11] = KPC-2, read-out: MIC K. pneumoniae KPC-2
[12] = SHV-12, read-out: MIC K. pneumoniae SHV-12
[13] = TEM-10, read-out: MIC K. pneumoniae TEM-10
[14] = ATCC29212, ATCC29212, read-out: MIC E. faecalis ATCC29212
[15] = Vancomycin-resistant, read-out: MIC E. faecalis Vancomycin-resistant
[16] = ATCC49619, ATCC49619, read-out: MIC S. pneumoniae ATCC49619
[17] = erm B + mef A genotype, read-out: MIC S. pneumoniae erm B + mef A genotype
[18] = erm B + tet(M, O) genotype, read-out: MIC S. pneumoniae erm B + tet(M, O) genotype
[19] = read-out: MIC S. pneumoniae mef A genotype, mef A genotype
[20] = read-out: MIC S. pneumoniae mef A genotype, mef A genotype, first of two such columns (c3)
[21] = ATCC19606, ATCC19606, read-out: MIC A. baumannii ATCC19606
[22] = IMP-4, read-out: MIC A. baumannii IMP-4
[23] = chromosomal class C, read-out: MIC A. baumannii chromosomal class C
[24] = imipenem-resistant, read-out: MIC A. baumannii imipenem-resistant
[25] = ATCC49247, ATCC49247, read-out: MIC H. influenzae ATCC49247
[26] = erythro > 4, azithro 1, read-out: MIC H. influenzae erythro > 4, azithro 1
[27] = ATCC29213, ATCC29213, read-out: MIC S. aureus ATCC29213
[28] = USA600, USA600, GISA, read-out: MIC S. aureus USA600, GISA
[29] = read-out: MIC S. aureus erm A genotype
[30] = ATCC19615, ATCC19615, read-out: MIC S. pyogenes ATCC19615
[31] = macrolide-resistant, read-out: MIC S. pyogenes macrolide-resistant
[32] = ATCC27853, read-out: MIC P. aeruginosa ATCC27853
[33] = read-out: MIC P. aeruginosa HPA101-1477
[34] = ATCC25922, ATCC25922, read-out: MIC E. coli ATCC25922
[35] = read-out: MIC E. coli CTX-M-14, CTX-M-14
[36] = read-out: MIC E. coli NDM-1, NDM-1
[37] = read-out: MIC E. coli TEM-1, TEM-1
[38] = MRSA / USA100, MRSA: USA100, read-out: MIC S. aureus MRSA: USA100
[39] = MRSA / USA300, MRSA: USA300, read-out: MIC S. aureus MRSA: USA300

CC[C@H]1OC(=O)[C@H](C)[C@@H](O[C@H]2C[C@@](C)(OC)[C@@H](O)[C@H](C)O2)[C@H](C)[C@@H](O[C@@H]2O[C@H](C)C[C@H](N(C)C)[C@H]2O)[C@](C)(O)C[C@@H](C)CN(C)[C@H](C)[C@@H](O)[C@]1(C)O [Azithromycin, azithromycin, reference compound]
16 µg/mL: MIC [1, 12] | MIC [4, 21]
32 µg/mL: MIC [4, 23] | MIC ([6]; MRSA / USA300, read-out: MIC S. aureus MRSA: USA300)
0.125 µg/mL: MIC [5, 26]
< 0.0312 µg/mL: MIC [3, 16] | MIC [3, 18] | MIC [7, 30]
8 µg/mL: MIC [1, 13] | MIC [4, 24]
2 µg/mL: MIC [7, 31]
4 µg/mL: MIC [1, 10] | MIC [2, 14] | MIC [3, 19] | MIC [9, 34]
0.5 µg/mL: MIC [5, 25]
1 µg/mL: MIC [6, 27] | MIC [9, 37]
> 32 µg/mL: MIC [1, 11] | MIC [2, 15] | MIC [3, 17] | MIC [4, 22] | MIC ([6]; MRSA / USA100, read-out: MIC S. aureus MRSA: USA100) | MIC [6, 28] | MIC [6, 29] | MIC [8, 32] | MIC [8, 33] | MIC [9, 35] | MIC [9, 36]
0.25 µg/mL: MIC [3, 20]

CC[C@H]1OC(=O)[C@H](C)C(=O)[C@H](C)[C@@H](O[C@@H]2OC(CN)CC(N(C)C)C2O)[C@](C)(OC)C[C@@H](C)CN[C@H](C)[C@H]2N(CCCCn3cc(-c4cccc(N)c4)nn3)C(=O)O[C@]12C (some centres unmarked) [FSM-21700]
4 µg/mL: MIC [1, 10]
2 µg/mL: MIC [3, 19] | MIC [7, 31]
≤ 0.0312 µg/mL: MIC [3, 16]
0.0625 µg/mL: MIC [3, 18] | MIC [7, 30]
8 µg/mL: MIC [2, 14] | MIC [6, 27] | MIC [9, 37]
32 µg/mL: MIC [1, 13] | MIC [5, 25] | MIC [6, 29] | MIC [9, 34]
16 µg/mL: MIC [3, 17] | MIC [5, 26] | MIC [9, 36]
0.5 µg/mL: MIC [3, 20]
> 32 µg/mL: MIC [1, 11] | MIC [1, 12] | MIC [2, 15] | MIC [4, 21] | MIC [4, 22] | MIC [4, 23] | MIC [4, 24] | MIC [6, 38] | MIC [6, 39] | MIC [6, 28] | MIC [8, 32] | MIC [8, 33] | MIC [9, 35]

C=CCOC(=O)NCC1CC(N(C)C)C(O)[C@H](O[C@@H]2[C@@H](C)C(=O)[C@@H](C)C(=O)O[C@H](CC)[C@@]3(C)OC(=O)N(CCCCn4cc(-c5cccc(N)c5)nn4)[C@@H]3[C@@H](C)NC[C@H](C)C[C@@]2(C)OC)O1 (some centres unmarked) [FSM-21795]
8 µg/mL: MIC [1, 10] | MIC [5, 26]
0.0625 µg/mL: MIC [3, 18] | MIC [7, 30]
2 µg/mL: MIC [7, 31]
16 µg/mL: MIC [3, 19] | MIC [6, 27] | MIC [9, 34]
32 µg/mL: MIC [4, 21] | MIC [4, 24] | MIC [8, 32]
> 32 µg/mL: MIC [1, 11] | MIC [2, 15] | MIC [3, 17] | MIC [6, 38] | MIC [6, 39] | MIC [6, 28] | MIC [6, 29] | MIC [9, 36]
0.25 µg/mL: MIC [3, 16]
1 µg/mL: MIC [2, 14]
4 µg/mL: MIC [3, 20] | MIC [5, 25]

CCC1OC(=O)C(C)C(=O)C(C)C(OC2OC(C)CC(n3ccnc3)C2O)C(C)(OC)CC(C)CNC(C)C2N(CCCCn3cc(-c4cccc(N)c4)nn3)C(=O)OC12C (centres unmarked) [FSM-120394]
>64 µg/mL: MIC K. pneumoniae clinical ([1]; Strain No. MP546) | MIC K. pneumoniae clinical ([1]; Strain No. MP548) | MIC E. faecalis van resistant ([2]; van resistant, Strain No. UNT-039) | MIC A. baumannii clinical ([4]; Strain No. MP576) | MIC A. baumannii clinical ([4]; Strain No. MP577) | MIC S. aureus ATCC29213 ([6]; ATCC29213, Strain No. MP-12) | MIC S. aureus ATCCBAA-977 ([6]; ATCCBAA-977, Strain No. MP-17) | MIC S. aureus (MRSA) GISA USA600 ([6]; GISA USA600, Strain No. MP-619 UNT-120) | MIC S. aureus (MRSA) ST-228 cErm ([6]; ST-228 cErm, Strain No. MP-513) | MIC S. aureus (MRSA) USA100 ([6]; USA100, Strain No. MP-618 UNT-096) | MIC S. aureus (MRSA) USA300 ([6]; USA300, Strain No. MP-549) | MIC S. aureus (MRSA) ermA phenotype ([6]; ermA phenotype, Strain No. MP-620 UNT-146) | MIC P. aeruginosa ATCC27853 ([8]; ATCC27853, Strain No. MP-3) | MIC P. aeruginosa PAO1 ([8]; PAO1, Strain No. MP-7) | MIC P. aeruginosa PAO1:mex ([8]; PAO1:mex, Strain No. MP-8) | MIC E. coli ATCC25922 ([9]; ATCC25922, Strain No. MP-4) | MIC E. coli clinical ([9]; clinical, Strain No. MP541) | MIC E. coli clinical-cErm ([9]; clinical-cErm, Strain No. MP532)
16 µg/mL: MIC K. pneumoniae ATCC10031 ([1]; ATCC10031, Strain No. MP-14) | MIC E. coli ATCC25922:tolC ([9]; ATCC25922:tolC, Strain No. MP-9)
4 µg/mL: MIC E. faecalis ATCC29212 ([2]; ATCC29212, Strain No. MP-24) | MIC S. pyogenes mac resistant ([7]; mac resistant, Strain No. MP-625 UNT-014)
64 µg/mL: MIC A. baumannii ATCC19606 ([4]; ATCC19606, Strain No. MP-15)
0.25 µg/mL: MIC S. pneumoniae mefA ([3]; Strain No. MP-627 UNT-039)
0.5 µg/mL: MIC S. pneumoniae ATCC49619 ([3]; ATCC49619, Strain No. MP-21) | MIC S. pneumoniae mefA ([3]; Strain No. MP-626 UNT-038) | MIC S. pyogenes ATCC19615 ([7]; ATCC19615, Strain No. MP-19)

From patent US11535643B2, “Macrolides with modified desosamine sugars and uses thereof” (President and Fellows of Harvard College, priority 2015, dated 2022)
